Data from the supplement of paper PMC10627819.

What was measured:
[1] = test system: S. aureus DSM 20231; assay: Bliss interaction score (quartile over a dose matrix) (fitness difference); higher = more antagonism (negative = synergy)
How it was run: (§1)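 Values were capped at 1 after dividing OD595 at stationary-phase entry by the plate's robust no-drug mean. This ratio is fitness, and single-drug fitness was inferred from the combination data. The Bliss score is observed minus product-expected fitness, given as quartiles over technical, biological and donor/recipient replicates.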

[2] = test system: S. pneumoniae D39V; assay: as above
How it was run: as §1

[3] = test system: B. subtilis 168; assay: as above
How it was run: as §1

[4] = test system: S. aureus Newman; assay: as above
How it was run: as §1

[5] = test system: S. aureus Newman; assay: fitness (endpoint OD595 vs no drug) (fraction); higher = more growth; conditions: one replicate
How it was run: (§2)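 In 384-well plates at 37 °C, cultures began at OD595 0.01 in 30 µl, with 55 µl used for S. pneumoniae. OD595 readings every 30 min for 14 h were corrected by the first reading. Fitness divides the stationary-phase transition optical density by the robust mean of no-drug control wells. The result is capped at 1.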

[6] = test system: S. pneumoniae D39V; assay: as above
How it was run: as §2
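For Bliss interaction score (quartile over a dose matrix) in this document: first quartile when negative (synergy) and third quartile when positive (antagonism).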

C/C(=C\C(=O)OCCCCCCCCC(=O)O)C[C@@H]1OC[C@H](C[C@@H]2O[C@H]2[C@@H](C)[C@H](C)O)[C@@H](O)[C@H]1O [Pseudomonic acid] + CCCCCCCCCC(=O)N[C@@H]1[C@H]([C@@H]([C@H](O[C@H]1OC2=C3C=C4C=C2OC5=C(C=C(C=C5)[C@H]([C@H]6C(=O)N[C@@H](C7=C(C(=CC(=C7)O)OC8[C@H]([C@H]([C@@H]([C@H](O8)CO)O)O)O)C9=C(C=CC(=C9)[C@H](C(=O)N6)NC(=O)[C@@H]4NC(=O)[C@@H]1C2=CC(=CC(=C2)OC2=C(C=CC(=C2)[C@H](C(=O)N[C@H](CC2=CC(=C(O3)C=C2)Cl)C(=O)N1)N)O)O)O)C(=O)O)O[C@H]1[C@@H]([C@H]([C@@H]([C@H](O1)CO)O)O)NC(=O)C)Cl)CO)O)O [Teicoplanin]
main component drawn
Conditions | Bliss interaction score
[1] | -0.0304
[2] | 0.0843
[3] | 0.116
[4] | -0.0375

fitness, [5], main component drawn
Conditions | first compound 0.0313 µg/mL | first compound 0.0625 µg/mL | first compound 0.125 µg/mL
partner 0.1562 µg/mL | 0.0547 | 0.0391 | 0.0327
partner 0.3125 µg/mL | 0.0341 | 0.0111 | 0.005
partner 0.625 µg/mL | 0.0079 | 0.0049 | 0.0139

C/C(=C\C(=O)OCCCCCCCCC(=O)O)C[C@@H]1OC[C@H](C[C@@H]2O[C@H]2[C@@H](C)[C@H](C)O)[C@@H](O)[C@H]1O [Pseudomonic acid] + COc1ccc(C[C@H](N)C(=O)N[C@H]2[C@@H](O)[C@H](n3cnc4c(N(C)C)ncnc43)O[C@@H]2CO)cc1 [Puromycin]
Conditions | Bliss interaction score
[1] | 0.01
[2] | -0.209
[3] | -0.0341
[4] | 0.0128

fitness
Conditions | first compound 0.03 µg/mL | first compound 0.0313 µg/mL | first compound 0.06 µg/mL | first compound 0.0625 µg/mL | first compound 0.12 µg/mL | first compound 0.125 µg/mL
[5], partner 0.39 µg/mL | – | 0.0558 | – | 0.0476 | – | 0.0585
[5], partner 0.78 µg/mL | – | 0.0593 | – | 0.043 | – | 0.0499
[5], partner 1.56 µg/mL | – | 0.054 | – | 0.0656 | – | 0.0613
[6], partner 1 µg/mL | 0.901 | – | 0.774 | – | 0.556 | –
[6], partner 2 µg/mL | 0.896 | – | 0.73 | – | 0.428 | –
[6], partner 4 µg/mL | 0.735 | – | 0.491 | – | 0.246 | –

C/C(=C\C(=O)OCCCCCCCCC(=O)O)C[C@@H]1OC[C@H](C[C@@H]2O[C@H]2[C@@H](C)[C@H](C)O)[C@@H](O)[C@H]1O [Pseudomonic acid] + Cn1nnc(-c2ccc(-c3ccc(N4C[C@H](CO)OC4=O)cc3F)cn2)n1 [Tedizolid]
Conditions | Bliss interaction score
[1] | 0.0061
[2] | 0.21
[3] | -0.0611
[4] | 0.011

fitness
Conditions | partner 0.03125 µg/mL | partner 0.0625 µg/mL | partner 0.125 µg/mL | partner 0.25 µg/mL | partner 0.5 µg/mL
[5], first compound 0.0313 µg/mL | – | 0.0219 | 0.0244 | 0.0038 | –
[5], first compound 0.0625 µg/mL | – | 0.0311 | 0.0131 | 0.0239 | –
[5], first compound 0.125 µg/mL | – | 0.031 | 0.0219 | 0.018 | –
[6], first compound 0.03 µg/mL | 0.963 | 0.965 | 0.82 | 0.777 | –
[6], first compound 0.06 µg/mL | 0.881 | 0.9 | 0.759 | 0.767 | 0.516
[6], first compound 0.12 µg/mL | 0.925 | 0.923 | 0.707 | 0.587 | 0.382

C/C(=C\C(=O)OCCCCCCCCC(=O)O)C[C@@H]1OC[C@H](C[C@@H]2O[C@H]2[C@@H](C)[C@H](C)O)[C@@H](O)[C@H]1O [Pseudomonic acid] + CN(N=O)C(=O)N[C@@H](C=O)[C@@H](O)[C@H](O)[C@H](O)CO [Streptozotocin]
Conditions | Bliss interaction score
[1] | -0.011
[2] | -0.0598
[3] | 0.105
[4] | -0.0211

fitness
Conditions | first compound 0.03 µg/mL | first compound 0.0313 µg/mL | first compound 0.06 µg/mL | first compound 0.0625 µg/mL | first compound 0.12 µg/mL | first compound 0.125 µg/mL
[5], partner 0.15 µg/mL | – | 0.0359 | – | 0.0417 | – | 0.0264
[5], partner 0.3 µg/mL | – | 0.0204 | – | 0.0023 | – | 0.0089
[5], partner 0.6 µg/mL | – | 0.0135 | – | 0.0039 | – | 0.0091
[6], partner 1.2 µg/mL | 0.834 | – | 0.722 | – | 0.533 | –
[6], partner 2.4 µg/mL | 0.885 | – | 0.718 | – | 0.538 | –
[6], partner 4.8 µg/mL | 0.874 | – | 0.752 | – | 0.56 | –

C/C(=C\C(=O)OCCCCCCCCC(=O)O)C[C@@H]1OC[C@H](C[C@@H]2O[C@H]2[C@@H](C)[C@H](C)O)[C@@H](O)[C@H]1O [Pseudomonic acid] + CC1=C\[C@@H](O)CC(=O)Cc2nc(co2)C(=O)N2CCC=C2C(=O)O[C@H](C(C)C)[C@H](C)/C=C/C(=O)NC\C=C\1 [Virginiamycin M1]
Conditions | Bliss interaction score
[1] | -0.0077
[2] | 0.106
[3] | -0.0497
[4] | -0.0218

fitness, [6], one replicate
Conditions | first compound 0.03 µg/mL | first compound 0.06 µg/mL | first compound 0.12 µg/mL
partner 0.15 µg/mL | ≥ 1 | ≥ 1 | 0.866
partner 0.3 µg/mL | ≥ 1 | ≥ 1 | 0.865

fitness
Conditions | first compound 0.03 µg/mL | first compound 0.0313 µg/mL | first compound 0.06 µg/mL | first compound 0.0625 µg/mL | first compound 0.12 µg/mL | first compound 0.125 µg/mL
[5], partner 0.0625 µg/mL | – | 0.0328 | – | 0.0216 | – | 0.0353
[5], partner 0.125 µg/mL | – | 0.0308 | – | 0.0347 | – | 0.0594
[5], partner 0.25 µg/mL | – | 0.0405 | – | 0.0352 | – | 0.0492
[6], partner 0.5 µg/mL | 0.924 | – | 0.856 | – | 0.629 | –
[6], partner 1 µg/mL | 0.914 | – | 0.798 | – | 0.63 | –
[6], partner 2 µg/mL | 0.952 | – | 0.844 | – | 0.647 | –
